Reference: US20160193299A1, “MODIFIED NUCLEOSIDE, NUCLEOTIDE, AND NUCLEIC ACID COMPOSITIONS” (Moderna Therapeutics, Inc., priority 2011, published 2016)

Legend:
Balb-C mice [1] = assay: Intramuscular and subcutaneous administration of modified luciferase mRNA in PBS (whole-body flux); format: in vivo, mouse
Procedure: The mice were imaged at 2 hours, 8 hours, 24 hours, 48 hours, 72 hours, 96 hours, 120 hours and 144 hours for intramuscular delivery and 2 hours, 8 hours, 24 hours, 48 hours, 72 hours, 96 hours and 120 hours for subcutaneous delivery. Twenty minutes prior to imaging, mice were injected intraperitoneally with a D-luciferin solution at 150 mg/kg. Animals were then anesthetized and images were acquired with an IVIS Lumina II imaging system (Perkin Elmer). Bioluminescence was measured as total flux (photons/second) of the entire mouse. The average total flux (photons/second) for intramuscular administration is shown in Table 113 and the average total flux (photons/second) for subcutaneous administration is shown in Table 114. The background signal was 3.79E+05 (p/s). The peak expression for intramuscular administration was seen between 24 and 48 hours for all chemistry and expression was still detected at 144 hours.

[2] = system: liver, spleen, lung and kidney; assay: Lipoplex study, organ flux at 6 hours (Table 130); format: in vivo, mouse; conditions: lipoplexed luciferase mRNA, 0.10 mg/kg
Procedure: (§1) The formulation was administered intravenously (I.V.), intramuscularly (I.M.) or subcutaneously (S.C.) to Balb-C mice at a dose of 0.10 mg/kg.
(§2) Twenty minutes prior to imaging, mice were injected intraperitoneally with a D-luciferin solution at 150 mg/kg. Animals were then anesthetized and images were acquired with an IVIS Lumina II imaging system (Perkin Elmer). Bioluminescence was measured as total flux (photons/second) of the entire mouse. The mice were imaged at 8 hours, 24 hours and 48 hours after dosing and the average total flux (photons/second) was measured for each route of administration and chemical modification. The background signal was about 3.91E+05 p/s. Organs were imaged at 6 hours and the average total flux (photons/second) was measured for the liver, spleen, lung and kidney. A control for each organ was also analyzed.

HeLa cells = assay: Chemical modifications on luciferase mRNA, HeLa transfection (RLU); format: cell-based; conditions: 83 ng luciferase mRNA, 18 to 22 hours
Procedure: The day before transfection, 20,000 HeLa cells (ATCC no. CCL-2; Manassas, Va.) were harvested by treatment with Trypsin-EDTA solution (Life Technologies, Grand Island, N.Y.) and seeded in a total volume of 100 ul EMEM medium (supplemented with 10% FCS and 1× Glutamax) per well in a 96-well cell culture plate (Corning, Manassas, Va.). The cells were grown at 37° C. in 5% CO2 atmosphere overnight. […] Lipofectamine 2000 (LifeTechnologies, Grand Island, N.Y.) was used as transfection reagent and 0.2 ul were diluted in 10 ul final volume of OPTI-MEM. After 5 minutes of incubation at room temperature, both solutions were combined and incubated an additional 15 minute at room temperature. Then the 20 ul combined solution was added to the 100 ul cell culture medium containing the HeLa cells and incubated at room temperature.
After 18 to 22 hours of incubation cells expressing luciferase were lysed with 100 ul of Passive Lysis Buffer (Promega, Madison, Wis.) according to manufacturer instructions. Aliquots of the lysates were transferred to white opaque polystyrene 96-well plates (Corning, Manassas, Va.) and combined with 100 ul complete luciferase assay solution (Promega, Madison, Wis.). […] The plate reader was a BioTek Synergy H1 (BioTek, Winooski, Vt.). The background signal of the plates without reagent was about 200 relative light units per well.

Balb-C mice [3] = assay: Lipoplex study, whole-body flux (Table 129); format: in vivo, mouse; conditions: lipoplexed luciferase mRNA, 0.10 mg/kg
Procedure: as §1, §2

Factor IX [4] = assay: Example 39 in vivo study of Factor IX mmRNA IM, serum Factor IX; conditions: mice IM, 2×100 ug/mouse, 13 hours
Procedure: Human Factor IX mmRNA (Gen1; fully modified 5-methycytosine and pseudouridine) formulated in formulation buffer was delivered to mice via intramuscular injection.
The mice were bled at 13 hours after the intramuscular injection to determine the concentration of human the polypeptide in serum in pg/mL.

rat myoblast (L6 line) = assay: Example 44 signal sequence exchange study, secreted G-CSF ELISA; format: cell-based; conditions: RM, 250 ng modified mRNA, supernatant after 24 hrs
Excerpt: (§3) These variants included the G-CSF constructs encoding either the wild-type N terminal secretory signal peptide sequence ([…]; SEQ ID NO: 21), no secretory signal peptide sequence, or secretory signal peptide sequences taken from other mRNAs. These included sequences where the wild type GCSF signal peptide sequence was replaced with the signal peptide sequence of either: human α-1-anti trypsin (AAT) ([…]; SEQ ID NO: 22), human Factor IX (FIX) ([…]; SEQ ID NO: 23), human Prolactin (Prolac) ([…]; SEQ ID NO: 24), or human Albumin (Alb) ([…]; SEQ ID NO: 25).
(§4) 250 ng of modified mRNA encoding each G-CSF variant was transfected into HEK293A (293A in the table), mouse myoblast (MM in the table) (C2C12, CRL-1772, ATCC) and rat myoblast (RM in the table) (L6 line, CRL-1458, ATCC) cell lines in a 24 well plate using 1 ul of Lipofectamine 2000 (Life Technologies), each well containing 300,000 cells. […] The data shown in Table 68 reveal that cells transfected with G-CSF mmRNA encoding the Albumin signal peptide secrete at least 12 fold more G-CSF protein than its wild type counterpart.

mouse myoblast (C2C12) = assay: as above; format: cell-based; conditions: MM, 250 ng modified mRNA, supernatant after 24 hrs
Excerpt: as §3, §4

Factor IX [5] = assay: Example 16 lipid nanoparticle in vivo study, serum Factor IX ELISA; parameters: species or system mice
Procedure: Mice were sacrificed at 8 hrs after dosing. […] Protein expression was determined by ELISA.
As used in Table 30, the symbol “˜” means about.

HEK293A = assay: Example 44 signal sequence exchange study, secreted G-CSF ELISA; format: cell-based, human; conditions: 293A, 250 ng modified mRNA, supernatant after 24 hrs
Excerpt: as §3, §4

5mC/pU: Luciferase mRNA SEQ ID NO: 16, polyA about 140, fully modified with 5-methylcytosine and pseudouridine
Flux (Balb-C mice [1]; Balb-C mice, intramuscular 2.5 mg/kg in PBS, 2 hours): 1.98E+07 p/s
Flux (Balb-C mice [1]; Balb-C mice, subcutaneous 2.5 mg/kg in PBS, 2 hours): 5.26E+06 p/s
Flux (Balb-C mice [1]; intramuscular 2.5 mg/kg, 8 hours): 1.42E+07 p/s
Flux (Balb-C mice [1]; intramuscular 2.5 mg/kg, 24 hours): 2.92E+07 p/s
Flux (Balb-C mice [1]; intramuscular 2.5 mg/kg, 48 hours): 2.64E+07 p/s
Flux (Balb-C mice [1]; intramuscular 2.5 mg/kg, 72 hours): 2.18E+07 p/s
Flux (Balb-C mice [1]; intramuscular 2.5 mg/kg, 96 hours): 2.75E+07 p/s
Flux (Balb-C mice [1]; intramuscular 2.5 mg/kg, 120 hours): 2.19E+07 p/s
Flux (Balb-C mice [1]; intramuscular 2.5 mg/kg, 144 hours): 9.17E+06 p/s
Flux (Balb-C mice [1]; subcutaneous 2.5 mg/kg, 8 hours): 2.32E+06 p/s
Flux (Balb-C mice [1]; subcutaneous 2.5 mg/kg, 24 hours): 2.67E+06 p/s
Flux (Balb-C mice [1]; subcutaneous 2.5 mg/kg, 48 hours): 1.22E+06 p/s
Flux (Balb-C mice [1]; subcutaneous 2.5 mg/kg, 72 hours): 1.12E+06 p/s
Flux (Balb-C mice [1]; subcutaneous 2.5 mg/kg, 96 hours): 5.16E+05 p/s
Flux (Balb-C mice [1]; subcutaneous 2.5 mg/kg, 120 hours): 3.80E+05 p/s
Inj. Site Flux ([2]; I.M.): 1.15E+06 p/s
Kidney Flux ([2]; I.M.): 1.44E+04 p/s
Liver Flux ([2]; I.M.): 2.46E+04 p/s
Lung Flux ([2]; I.M.): 1.50E+04 p/s
Spleen Flux ([2]; I.M.): 1.38E+04 p/s
Kidney Flux ([2]; I.V.): 1.77E+04 p/s
Liver Flux ([2]; I.V.): 5.26E+05 p/s
Lung Flux ([2]; I.V.): 4.28E+06 p/s
Spleen Flux ([2]; I.V.): 2.04E+07 p/s
Inj. Site Flux ([2]; S.C.): 4.46E+04 p/s
Kidney Flux ([2]; S.C.): 1.69E+04 p/s
Liver Flux ([2]; S.C.): 1.55E+04 p/s
Lung Flux ([2]; S.C.): 1.45E+04 p/s
Spleen Flux ([2]; S.C.): 1.67E+04 p/s
RLU (HeLa cells): 1601234 RLU
Flux (Balb-C mice [3]; I.M., 8 hrs): 1.90E+06 p/s
Flux (Balb-C mice [3]; I.M., 24 hrs): 9.33E+05 p/s
Flux (Balb-C mice [3]; I.M., 48 hrs): 8.51E+05 p/s
Flux (Balb-C mice [3]; I.V., 8 hrs, background about 3.91E+05 p/s): 5.76E+06 p/s
Flux (Balb-C mice [3]; I.V., 24 hrs): 1.02E+06 p/s
Flux (Balb-C mice [3]; I.V., 48 hrs): 4.53E+05 p/s
Flux (Balb-C mice [3]; S.C., 8 hrs): 2.85E+06 p/s
Flux (Balb-C mice [3]; S.C., 24 hrs): 6.66E+05 p/s
Flux (Balb-C mice [3]; S.C., 48 hrs): 3.24E+05 p/s

Factor IX: human Factor IX mRNA SEQ ID NO: 10, polyA ~160 nt, Cap1, fully modified with 5-methylcytosine and pseudouridine
Factor IX in serum (Factor IX [4]): 1600 pg/mL
secreted G-CSF protein (rat myoblast (L6 line)): 11675 pg/mL
secreted G-CSF protein (mouse myoblast (C2C12)): 6175 pg/mL
Factor IX Serum Concentration 8-12 hours after administration (Factor IX [5]; IM, 2 × 100 ug): ~1.6 ng/mL
Factor IX Serum Concentration 8-12 hours after administration (Factor IX [5]; IV (LNP), 1 ug): ~40 ng/mL
Factor IX Serum Concentration 8-12 hours after administration (Factor IX [5]; IV (LNP), 10 ug): ~400 ng/mL
Factor IX Serum Concentration 8-12 hours after administration (Factor IX [5]; IV (LNP), 100 ug): ~3,000-10,000 ng/ml
Factor IX Protein Expression, Conc (Factor IX [5]; mice IV LNP, 10 ug, serum 8 hrs): 383.04 ng/mL
Factor IX Protein Expression, Conc (Factor IX [5]; mice IV LNP, 100 ug, serum 8 hrs, dilution 50x): 3247.75 ng/mL
Factor IX Protein Expression, Conc (Factor IX [5]; mice IV LNP, 100 ug, serum 8 hrs, dilution 250x): 11177.20 ng/mL
Factor IX protein expression (Factor IX [5]; mice IV LNP, 100 ug, serum 8 hrs, range given in text): 3000 to 11000 ng/mL
secreted G-CSF protein (HEK293A): 11675 pg/mL
